A short description of this data set: Caco-2 permeability assay. In kind it is in vitro ADME, human. To be noted: human; for recovery at 120 min, 10 µM: Caco-2, % SSA recovered from the assay after 2 hours; for Papp B→A at 120 min, 10 µM: Caco-2, Caco-2. The protocol: Section 4: DMPK Methods and Further Discussion […]
Caco-2 Permeability studies: The permeability assay for SSA 1-6 and 10 was performed at Cyprotex Discovery Limited (Macclesfield, UK) and analysed at Cancer Research Horizons. SSA 1-6 and 10 were incubated at a final concentration of 10 uM with human intestinal Caco-2 cells at 37°C, 5% CO2 with a relative humidity of 95%. After 120 minutes the apical compartment inserts and the companion plates were separated, and the apical and basolateral samples were transferred. Incubations were conducted in duplicate and the fluorescent membrane integrity marker; Lucifer Yellow was co-incubated with the SSA compounds at the start of the assay. Compounds of known permeability were used as controls and were within acceptance criteria. Further processing is described in:
Sample preparation and liquid chromatography-mass spectrometry analysis.
Sample preparation and liquid chromatography-mass spectrometry analysis: All samples were centrifuged at 3500 rpm at 4°C for 10 min to precipitate protein and enable sampling of supernatant prior to appropriate dilution for liquid chromatography-mass spectrometry (LC-MS/MS analysis). […]
(1.5 µm, 50 x 2.1 mm) at a temperature of 40°C and a binary mobile phase gradient at a flow rate of […]
0.4 mL/min. […]
For the purpose of apparent permeability determination, samples were analysed using a Waters I-Class ultra-high-performance liquid chromatography (UHPLC) system coupled to a Waters Vion mass spectrometer (Waters, Elstree, UK). Separation of analytes was achieved used an Accucore Vanquish C18+ column (1.5 µm, 50 x 2.1 mm) at a temperature of 40°C and a binary mobile phase gradient at a flow rate of 0.4 mL/min. Initial LC conditions for SSA 1-4 comprised 66% solvent A (0.1% formic acid + 5 mM ammonium acetate in water), 33% solvent B (0.1% formic acid + 5 mM ammonium acetate in methanol); this was ramped to 63% B at 1.8 min and 95% B at 1.9 min, held for 0.5 min and then immediately returned to initial conditions and held for the remaining 0.5 min of the method. Initial LC conditions for SSA 5-10 comprised 54% solvent A (0.1% formic acid + 5 mM ammonium acetate in water), 46% solvent B (0.1% formic acid + 5 mM ammonium acetate in methanol); this was ramped to 67% B at 1.8 min and 95% B at 1.9 min, held for 0.5 min and then immediately returned to initial conditions and held for the remaining 0.5 min of the method.
Sample analysis was by electrospray ionisation in negative ion mode. The capillary voltage was 2.5 kV, desolvation gas was 600°C.
For the purpose of PK determination of SSA 5, samples were analysed using a Waters I-Class ultra-high-performance liquid chromatography (UHPLC) system coupled to a Waters Xevo TQ-XS mass spectrometer. Separation of analytes was achieved using an Accucore Vanquish C18+ column (1.5 µm, 50 x 2.1 mm) at a temperature of 40°C and a binary mobile phase gradient at a flow rate of 0.4 mL/min. Initial LC conditions comprised 54% solvent A (0.1% formic acid + 5 mM ammonium acetate in water), 46% solvent B (0.1% formic acid + 5 mM ammonium acetate in methanol); this was ramped to 67% B at 1.8 min and 95% B at 1.9 min, held for 0.5 min and then immediately returned to initial conditions and held for the remaining 0.5 min of the method. Sample analysis was by electrospray ionisation combined with multiple reaction monitoring in negative ion mode. The […]
Mean blood concentration-time profile: Within these studies SSAs 3 and 5 were dosed at 1 mg/kg, to female CD-1 mice (n=9 per SSA) via an intravenous tail vein bolus dose formulation as solutions in 2 % DMSO/98 % water. Blood taken from the mouse tail vein was extracted by protein precipitation.
SSA concentrations were calculated through UPLC-MS/MS techniques, with tolbutamide as the internal standard. The assay met the acceptance criteria with >7 calibration standards within ± 20% of nominal concentration. The lower limit of quantitation was 2 ng/mL for both compounds. PK […]
Background: Caco-2 monolayers are a common model of the intestinal barrier.

Where [1] appears, read: 10 uM, 120 minutes, n = 2 technical repeats, read-out: Papp (B-A).
The mark [2] stands for this setting: in words, read-out: Papp (B-A) class.

SMILES strings stand for the structures. Like-named read-outs stand apart in the source and are kept apart here. Where only a bound is given, the exact number is not on record here.

The Papp B→A is the apparent permeability from the basolateral to the apical side of a cell layer.

As for `O=C(NCS(=O)(=O)O)Nc1ccc(C(F)(F)F)cc1` [SSA 1], the recovery at 120 min, 10 µM runs as follows: (read-out: Recovery (A-B)) 93%; (read-out: Recovery (B-A)) 101%. Besides, the Papp B→A at 120 min, 10 µM under setting [1] was found to be 5.4 ×10⁻⁶ cm/s.

Regarding `O=C(NCCCS(=O)(=O)O)Nc1ccc(C(F)(F)F)cc1` [SSA 2], the recovery at 120 min, 10 µM was 97% (read-out: Recovery (A-B)) and 102% (read-out: Recovery (B-A)). Besides, the Papp B→A at 120 min, 10 µM under setting [1] was determined as 1.7 ×10⁻⁶ cm/s.

`O=C(O)CNC(=O)Nc1ccc(C(F)(F)F)cc1` [SSA 4]: the recovery at 120 min, 10 µM by setting is: (read-out: Recovery (A-B)) 93%; (read-out: Recovery (B-A)) 96%. In addition, the Papp B→A at 120 min, 10 µM under setting [1] is 2.3 ×10⁻⁶ cm/s.

Take `O=C(NCS(=O)(=O)O)Nc1ccccc1-c1nc2ccccc2s1` [SSA 5]: the recovery at 120 min, 10 µM is, setting by setting: (read-out: Recovery (A-B)) 79%; (read-out: Recovery (B-A)) 107%. Further, the Papp B→A at 120 min, 10 µM reads like this: under setting [1], 21 ×10⁻⁶ cm/s; under setting [2], over 10 ×10⁻⁶ cm/s.

On to `Cc1ccc2nc(-c3ccc(NC(=O)NCS(=O)(=O)O)cc3)sc2c1` [SSA 6], for which the recovery at 120 min, 10 µM is, setting by setting: (read-out: Recovery (A-B)) 59%; (read-out: Recovery (B-A)) 86%. The Papp B→A at 120 min, 10 µM is, setting by setting: under setting [1], 11 ×10⁻⁶ cm/s; under setting [2], over 10 ×10⁻⁶ cm/s.

With `Cc1ccc2nc(-c3ccc(NC(=O)NCCCS(=O)(=O)O)cc3)sc2c1` [SSA 10], the recovery at 120 min, 10 µM was found to be 54% (read-out: Recovery (A-B)) and 95% (read-out: Recovery (B-A)). Besides, the Papp B→A at 120 min, 10 µM under setting [1] is 6.7 ×10⁻⁶ cm/s.
